Patent US6706663B2, “Herbicidal 3-heterocyclic substituted benzisothiazole and benzisoxazole compounds” (Wyeth, priority 2000, dated 2004)

Columns and labels:
[1] = test system: MOOVA (Monochoria vaginalis); assay: Flooded paddy, preemergence weed control; assay type: in vivo, Presl.; conditions: rated 3-4 weeks after treatment, 0-9 rating scale
Summary of the method: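 Seeds or propagules were planted in the top 0.5 cm of silt loam soil and kept flooded 1.5–3 cm above the surface throughout, then held in the greenhouse. Injury was rated visually on a 0–9 scale against untreated controls, covering stand, vigor, malformation, size and chlorosis.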

[2] = test system: ECHCG (Echinochloa crus-galli); assay: Preemergence herbicidal evaluation; assay type: in vivo, (L.) Beau; conditions: rated 4-5 weeks after treatment
Summary of the method: (§1)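 Each species was sown separately in potting soil over roughly one inch of soil, and the surface sprayed with compound dissolved in aqueous acetone. Assessment used a 0–9 visual scale against a control after four to five weeks.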

SETVI (Setaria viridis) [3] = assay: Preemergence herbicidal evaluation; assay type: in vivo, (L.) Beau; conditions: rated 4-5 weeks after treatment
Summary of the method: as §1

ORYSAT (Rice, Tebonnet) [4] = assay: Flooded paddy, post-transplant rice tolerance; assay type: in vivo, Oryza sativa, (L.) Tebonnet; conditions: flooded paddy, post-transplant rice, rated 3-4 weeks after treatment, 0-9 rating scale
Summary of the method: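 Steps: transplant two ten-day-old seedlings into silt loam; flood to 1.5-3 cm above soil; apply herbicide post-transplant; maintain water on greenhouse benches; rate stand, vigor, malformation, size and chlorosis on a 0-9 visual scale versus control.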

[5] = test system: ABUTH (Abutilon theophrasti); assay: Preemergence herbicidal evaluation; assay type: in vivo, Medic.; conditions: rated 4-5 weeks after treatment
SETVI (Setaria viridis) [6] = assay: Postemergence herbicidal evaluation; assay type: in vivo, (L.) Beau; conditions: for SETVI herbicidal rating: postemergence
Summary of the method: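 Seedlings grown about two weeks were sprayed with compound in 50/50 acetone/water containing 0.5% TWEEN 20, at about 0.0040 to 1.000 kg/ha via nozzle at 40 psi. Plants were kept under greenhouse conditions and visually rated on a 0-9 scale versus control four to five weeks after treatment; replicate tests averaged.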

ORYSAT (Rice, Tebonnet) [7] = assay: Postemergence herbicidal evaluation; assay type: in vivo, Oryza sativa, (L.) Tebonnet; conditions: for ORYSAT herbicidal rating: postemergence
Summary of the method: (§2)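 Seedlings grown for about two weeks were sprayed postemergence and then kept under standard greenhouse care. Injury was rated visually 4–5 weeks after treatment on a 0–9 scale against untreated controls, and ratings from repeat tests were averaged.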

[8] = test system: TRZAWR (Wheat, Winter, cv Riband); assay: Postemergence herbicidal evaluation; assay type: in vivo, Triticum aestivum; conditions: for TRZAWR herbicidal rating: postemergence
Summary of the method: as §2

[9] = Rate 0.0620 kg/ha, preemergence
[10] = Rate 0.1250 kg/ha, preemergence
[11] = Rate 0.2500 kg/ha, preemergence
[12] = preemergence, rate 0.0620 kg/ha
[13] = preemergence, rate 0.1250 kg/ha
[14] = preemergence, rate 0.2500 kg/ha

Structure (SMILES) | herbicidal rating, MOOVA ([1]; rate 0.0080 kg/ha) | herbicidal rating, MOOVA ([1]; rate 0.0320 kg/ha) | herbicidal rating, MOOVA ([1]; rate 0.1250 kg/ha) | ECHCG preemergence herbicidal rating [2, 9] | ECHCG preemergence herbicidal rating [2, 10] | ECHCG preemergence herbicidal rating [2, 11] | SETVI preemergence herbicidal rating (SETVI (Setaria viridis) [3]; [9]) | SETVI preemergence herbicidal rating (SETVI (Setaria viridis) [3]; [10]) | SETVI preemergence herbicidal rating (SETVI (Setaria viridis) [3]; [11]) | herbicidal rating, ORYSAT (rice tolerance) (ORYSAT (Rice, Tebonnet) [4]; rate 0.0080 kg/ha) | herbicidal rating, ORYSAT (rice tolerance) (ORYSAT (Rice, Tebonnet) [4]; rate 0.0320 kg/ha) | herbicidal rating, ORYSAT (rice tolerance) (ORYSAT (Rice, Tebonnet) [4]; rate 0.1250 kg/ha) | ABUTH preemergence herbicidal rating [5, 9] | ABUTH preemergence herbicidal rating [5, 10] | ABUTH preemergence herbicidal rating [5, 11] | Postemergence herbicidal rating, SETVI (SETVI (Setaria viridis) [6]; rate 0.0320 kg/ha) | Postemergence herbicidal rating, SETVI (SETVI (Setaria viridis) [6]; rate 0.0620 kg/ha) | Postemergence herbicidal rating, ORYSAT (ORYSAT (Rice, Tebonnet) [7]; rate 0.0320 kg/ha) | Postemergence herbicidal rating, ORYSAT (ORYSAT (Rice, Tebonnet) [7]; rate 0.0620 kg/ha) | Postemergence herbicidal rating, TRZAWR ([8]; rate 0.0320 kg/ha) | further results
Cn1c(C(F)(F)F)cc(=O)n(-c2ccc3snc(C4SCCN4C(=O)c4ccccc4)c3c2)c1=O (centres unmarked) [Compound 30, 3-benzoyl-2-[5-[3,6-dihydro-3-methyl-2,6-dioxo-4-(trifluoromethyl)-1(2H)-pyrimidinyl]-1,2-benzisothiazol-3-yl]thiazolidine] | 0.0 | 8.5 | 9.0 | 0.0 | 4.0 | 5.0 | 1.0 | 8.0 | 9.0 | 0.0 | 3.0 | 5.0 | 9.0 | 9.0 | 9.0 | 0.0 | 4.0 | 2.0 | 3.0 | 4.5 | Postemergence herbicidal rating, TRZAWR ([8]; rate 0.0620 kg/ha): 4.5
CCCC1COC(c2nsc3ccc(-n4c(=O)cc(C(F)(F)F)n(C)c4=O)cc23)O1 (centres unmarked) [Compound 77, 1-methyl-3-[3-(4-propyl-1,3-dioxolan-2-yl)-1,2-benzisothiazol-5-yl]-6-(trifluoromethyl)uracil] | 0.0 | 9.0 | 9.0 | – | – | – | – | – | – | 0.0 | 3.0 | 7.0 | – | – | – | – | – | – | – | – | Preemergence herbicidal rating ECHCG ([2]; Rate 0.0620 kg/ha): 8.5; Preemergence herbicidal rating ECHCG ([2]; Rate 0.1250 kg/ha): 9.0; Preemergence herbicidal rating ECHCG ([2]; Rate 0.2500 kg/ha): 9.0; Preemergence herbicidal rating SETVI (SETVI (Setaria viridis) [3]; Rate 0.0620 kg/ha): 8.5; Preemergence herbicidal rating SETVI (SETVI (Setaria viridis) [3]; Rate 0.1250 kg/ha): 9.0; Preemergence herbicidal rating SETVI (SETVI (Setaria viridis) [3]; Rate 0.2500 kg/ha): 9.0; Preemergence herbicidal rating ABUTH ([5]; Rate 0.0620 kg/ha): 9.0; Preemergence herbicidal rating ABUTH ([5]; Rate 0.1250 kg/ha): 9.0; Preemergence herbicidal rating ABUTH ([5]; Rate 0.2500 kg/ha): 9.0; SETVI herbicidal rating (SETVI (Setaria viridis) [6]; rate 0.0320 kg/ha): 9.0; SETVI herbicidal rating (SETVI (Setaria viridis) [6]; rate 0.0620 kg/ha): 5.0; ORYSAT herbicidal rating (ORYSAT (Rice, Tebonnet) [7]; rate 0.0320 kg/ha): 2.0; ORYSAT herbicidal rating (ORYSAT (Rice, Tebonnet) [7]; rate 0.0620 kg/ha): 4.0; TRZAWR herbicidal rating ([8]; rate 0.0320 kg/ha): 2.0; TRZAWR herbicidal rating ([8]; rate 0.0620 kg/ha): 3.5
Cn1c(C(F)(F)F)cc(=O)n(-c2ccc3snc(C4OCCS4)c3c2)c1=O (centres unmarked) [Compound 31, 1-methyl-3-[3-(1,3-oxathiolan-2-yl)-1,2-benzisothiazol-5-yl]-6-(trifluoromethyl)uracil] | 5.0 | 9.0 | 9.0 | 4.7 | 8.7 | 9.0 | 7.7 | 9.0 | 9.0 | 0.0 | 7.5 | 9.0 | 8.3 | 9.0 | 9.0 | 3.0 | 7.0 | 3.5 | 5.5 | 5.0 | Postemergence herbicidal rating, TRZAWR ([8]; rate 0.0620 kg/ha): 5.5
Cn1c(C(F)(F)F)cc(=O)n(-c2ccc3snc(-c4sccc4CO)c3c2)c1=O [Compound 85, 3-[3-[3-(hydroxymethyl)-2-thienyl]-1,2-benzisothiazol-5-yl]-1-methyl-6-(trifluoromethyl)uracil] | – | – | 9.0 | – | – | – | – | – | – | – | – | 5.5 | – | – | – | – | – | – | – | – | MOOVA herbicidal rating ([1]; rate 0.0080 kg/ha): 9.0; MOOVA herbicidal rating ([1]; rate 0.0320 kg/ha): 7.0; Preemergence herbicidal rating ECHCG [2, 12]: 0.0; Preemergence herbicidal rating ECHCG [2, 13]: 3.0; Preemergence herbicidal rating ECHCG [2, 14]: 4.0; Preemergence herbicidal rating SETVI (SETVI (Setaria viridis) [3]; [12]): 4.0; Preemergence herbicidal rating SETVI (SETVI (Setaria viridis) [3]; [13]): 9.0; Preemergence herbicidal rating SETVI (SETVI (Setaria viridis) [3]; [14]): 7.0; ORYSAT herbicidal rating (transplanted rice tolerance) (ORYSAT (Rice, Tebonnet) [4]; rate 0.0080 kg/ha): 0.0; ORYSAT herbicidal rating (transplanted rice tolerance) (ORYSAT (Rice, Tebonnet) [4]; rate 0.0320 kg/ha): 1.5; Preemergence herbicidal rating ABUTH [5, 12]: 9.0; Preemergence herbicidal rating ABUTH [5, 13]: 9.0; Preemergence herbicidal rating ABUTH [5, 14]: 9.0; SETVI herbicidal rating (SETVI (Setaria viridis) [6]; rate 0.0320 kg/ha): 5.0; SETVI herbicidal rating (SETVI (Setaria viridis) [6]; rate 0.0620 kg/ha): 9.0; ORYSAT herbicidal rating (ORYSAT (Rice, Tebonnet) [7]; rate 0.0320 kg/ha): 3.5; ORYSAT herbicidal rating (ORYSAT (Rice, Tebonnet) [7]; rate 0.0620 kg/ha): 4.5; TRZAWR herbicidal rating ([8]; rate 0.0320 kg/ha): 2.0; TRZAWR herbicidal rating ([8]; rate 0.0620 kg/ha): 3.5
Cn1c(C(F)(F)F)cc(=O)n(-c2ccc3snc(C4OCCCO4)c3c2)c1=O [Compound 28, 3-(3-m-dioxan-2-yl-1,2-benzisothiazol-5-yl)-1-methyl-6-(trifluoromethyl)uracil] | 9.0 | 9.0 | 9.0 | 9.0 | 9.0 | 9.0 | 9.0 | 9.0 | 9.0 | 7.0 | 9.0 | 9.0 | 9.0 | 9.0 | 9.0 | 8.3 | 8.5 | 5.3 | 6.5 | 5.0 | Postemergence herbicidal rating, TRZAWR ([8]; rate 0.0620 kg/ha): 6.5
C[C@@H]1C[C@H](C)OC(c2nsc3ccc(-n4c(=O)cc(C(F)(F)F)n(C)c4=O)cc23)O1 (stereo partly drawn) [Compound 50, 3-[3-[(4R,6S)-4,6-dimethyl-m-dioxan-2-yl]-1,2-benzisothiazol-5-yl]-1-methyl-6-(trifluoromethyl)uracil] | – | 9.0 | 9.0 | – | – | – | – | – | – | 3.0 | 6.5 | 8.5 | – | – | – | – | – | – | – | – | Preemergence herbicidal rating ECHCG ([2]; Rate 0.0620 kg/ha): 9.0; Preemergence herbicidal rating ECHCG ([2]; Rate 0.1250 kg/ha): 9.0; Preemergence herbicidal rating ECHCG ([2]; Rate 0.2500 kg/ha): 9.0; Preemergence herbicidal rating SETVI (SETVI (Setaria viridis) [3]; Rate 0.0620 kg/ha): 9.0; Preemergence herbicidal rating SETVI (SETVI (Setaria viridis) [3]; Rate 0.1250 kg/ha): 9.0; Preemergence herbicidal rating SETVI (SETVI (Setaria viridis) [3]; Rate 0.2500 kg/ha): 9.0; Preemergence herbicidal rating ABUTH ([5]; Rate 0.0620 kg/ha): 9.0; Preemergence herbicidal rating ABUTH ([5]; Rate 0.1250 kg/ha): 9.0; Preemergence herbicidal rating ABUTH ([5]; Rate 0.2500 kg/ha): 9.0; SETVI herbicidal rating (SETVI (Setaria viridis) [6]; rate 0.0320 kg/ha): 9.0; SETVI herbicidal rating (SETVI (Setaria viridis) [6]; rate 0.0620 kg/ha): 9.0; ORYSAT herbicidal rating (ORYSAT (Rice, Tebonnet) [7]; rate 0.0320 kg/ha): 5.5; ORYSAT herbicidal rating (ORYSAT (Rice, Tebonnet) [7]; rate 0.0620 kg/ha): 4.5; TRZAWR herbicidal rating ([8]; rate 0.0320 kg/ha): 4.5; TRZAWR herbicidal rating ([8]; rate 0.0620 kg/ha): 4.5
